The structures appear in SMILES notation. Some results are limits rather than exact numbers.

The test concerns the target T1, Recombinant human DNA polymerase gamma (Homo sapiens, UniProt P54098).
T1 construct: made in house; host or cells: insect cells
T1 sequence (P54098 1-1239): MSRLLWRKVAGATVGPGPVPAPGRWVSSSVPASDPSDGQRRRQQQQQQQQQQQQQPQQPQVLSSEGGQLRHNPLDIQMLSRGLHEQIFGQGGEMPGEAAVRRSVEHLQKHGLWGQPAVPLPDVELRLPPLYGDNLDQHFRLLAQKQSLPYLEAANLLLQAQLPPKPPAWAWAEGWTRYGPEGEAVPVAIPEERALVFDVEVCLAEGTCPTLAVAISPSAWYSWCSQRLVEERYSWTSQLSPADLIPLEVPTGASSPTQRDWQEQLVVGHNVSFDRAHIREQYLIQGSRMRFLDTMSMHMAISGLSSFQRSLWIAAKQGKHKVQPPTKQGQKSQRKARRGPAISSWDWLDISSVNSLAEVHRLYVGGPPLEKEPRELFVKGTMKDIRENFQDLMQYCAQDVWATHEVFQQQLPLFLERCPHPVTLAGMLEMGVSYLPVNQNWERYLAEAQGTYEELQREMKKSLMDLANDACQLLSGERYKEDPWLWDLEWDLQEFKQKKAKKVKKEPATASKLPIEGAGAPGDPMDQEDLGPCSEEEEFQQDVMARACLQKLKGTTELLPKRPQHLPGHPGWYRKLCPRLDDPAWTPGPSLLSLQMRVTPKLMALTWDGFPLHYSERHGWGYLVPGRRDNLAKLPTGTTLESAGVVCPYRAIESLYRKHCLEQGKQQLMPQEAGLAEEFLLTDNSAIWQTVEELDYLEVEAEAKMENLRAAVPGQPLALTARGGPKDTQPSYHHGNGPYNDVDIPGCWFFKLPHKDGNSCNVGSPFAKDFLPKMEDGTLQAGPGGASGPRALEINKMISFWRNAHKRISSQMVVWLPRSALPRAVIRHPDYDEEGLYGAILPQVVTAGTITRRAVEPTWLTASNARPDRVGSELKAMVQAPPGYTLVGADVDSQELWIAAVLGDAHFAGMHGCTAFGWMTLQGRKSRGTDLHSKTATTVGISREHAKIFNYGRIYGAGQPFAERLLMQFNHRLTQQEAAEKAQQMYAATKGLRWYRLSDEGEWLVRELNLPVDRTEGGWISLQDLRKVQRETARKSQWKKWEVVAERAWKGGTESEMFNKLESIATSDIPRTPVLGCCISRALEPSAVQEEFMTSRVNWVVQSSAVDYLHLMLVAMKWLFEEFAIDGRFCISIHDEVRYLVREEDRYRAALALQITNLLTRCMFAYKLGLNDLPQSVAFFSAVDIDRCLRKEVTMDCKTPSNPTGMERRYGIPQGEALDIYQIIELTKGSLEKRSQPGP
T1 sequence (Q9UHN1 26-485 partner limits assumed): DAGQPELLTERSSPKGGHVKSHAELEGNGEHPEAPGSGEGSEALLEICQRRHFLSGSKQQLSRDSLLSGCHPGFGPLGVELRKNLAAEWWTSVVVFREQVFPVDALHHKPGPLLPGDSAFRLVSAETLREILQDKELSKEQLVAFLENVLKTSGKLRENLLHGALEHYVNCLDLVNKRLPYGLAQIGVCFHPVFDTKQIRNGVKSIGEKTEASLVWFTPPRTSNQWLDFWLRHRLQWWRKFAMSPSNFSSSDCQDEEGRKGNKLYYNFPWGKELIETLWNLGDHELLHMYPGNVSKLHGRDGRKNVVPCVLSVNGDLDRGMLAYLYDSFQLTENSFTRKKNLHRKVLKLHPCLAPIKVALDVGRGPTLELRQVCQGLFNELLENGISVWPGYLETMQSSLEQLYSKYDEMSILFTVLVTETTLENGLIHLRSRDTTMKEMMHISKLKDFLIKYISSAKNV
Description: Inhibition of human DNA polymerase gamma. The test is classed as biochemical. The settings on record: triphosphate form of the compound tested; read-out: Mean IC50 ± SD for DNA Pol γ. An excerpt: Activated fish sperm DNA was purchased from USB/Affymetrix (Santa Clara, CA) and used as a template for the DNA polymerases alpha, beta, and gamma. The DNA template used in the RNA Pol II assay was a 1,188-bp restriction fragment containing the cytomegalovirus (CMV) immediate early promoter (Promega, Madison, WI). The RNA and DNA oligonucleotides used in the mitochondrial RNA polymerase assay (see Table S1 in the supplemental material) were synthesized and PAGE purified by Thermo Scientific/Dharmacon (Lafayette, CO). RNA primer R12 was 5′-^32P-phosphorylated with [γ-^32P]ATP (3,000 Ci/mmol) and T4 kinase (New England BioLabs, Ipswich, MA).
Human DNA polymerase alpha, isolated from HeLa cell extracts, was from CHIMERx (Madison, WI). Recombinant human DNA polymerase beta, expressed in E. coli, was a gift from Zucai Suo at The Ohio State University. Recombinant human DNA polymerase gamma (including both the large subunit and the small subunit) was cloned, expressed, and purified from insect cells by Gilead Sciences (Foster City, CA) ([13]). RNA PolII was purchased as part of the HeLaScribe nuclear extract in vitro transcription system kit from Promega (Madison, WI). The recombinant human PolRMT and the transcription factors mitochondrial transcription factor A (mtTFA) and B2 (mtTFB2) were purchased from Enzymax (Lexington, KY). FLAG epitope-tagged RNA PolI and PolIII complexes were isolated from rat NSN1 cells and HeLa cells, respectively ([17], [18]). The inhibition of DNA polymerases alpha, beta, and gamma, PolRMT, and PolII and the rate of single-nucleotide incorporation by PolRMT have been described previously in detail ([12], [13], [19]). Inhibition of RNA PolI and PolIII was studied using published methods ([20], [21]). All concentrations were final unless noted otherwise. For the RNA PolI inhibition assay, a reaction mixture containing 50 mM HEPES (pH 7.9), 20% glycerol, 100 mM KCl, 1 mM dithiothreitol (DTT), 50 μg/ml calf thymus DNA, 4 mM MgCl2, 5 or 80 μM UTP (0.25 μl of [5,6-^3H]UTP, >25 Ci/mmol; PerkinElmer), 1 mM noncompeting NTP, competing NTP (5 μM for GTP, CTP, and UTP and 25 μM for ATP), and various concentrations (0 to 500 μM) of NTP analogs was preincubated at 30°C for 5 min. […] After incubation at 30°C for 20 min to 1 h, the reactions were terminated by pipetting the mixtures onto DEAE-cellulose discs (DE81; Whatman), and the products analyzed as described previously ([20], [21]).
The IC50 is the midpoint of a concentration-inhibition curve. With `C[C@@]1(O)[C@H](O)[C@@H](CO)O[C@H]1n1ccc(N)nc1=O` [2′CMeC, 2′-C-methyl (2′CMe) cytidine], the IC50 is > 200 µM.

In the case of `C[C@@]1(O)[C@H](O)[C@@H](COP(=O)(O)OP(=O)(O)OP(=O)(O)O)O[C@H]1n1cnc2c(=O)[nH]c(N)nc21` [2′CMeGTP], the IC50 was > 200 µM.

Consider `[N-]=[N+]=N[C@]1(CO)O[C@@H](n2ccc(N)nc2=O)[C@H](O)[C@@H]1O` [4′-AzidoC, 4′-azido cytidine], for which the IC50 was > 200 µM.

As to `CC(C)OC(=O)[C@H](C)N[P@](=O)(OC[C@H]1O[C@@](C#N)(c2ccc3c(N)ncnn23)[C@](C)(O)[C@@H]1OC(=O)C(C)C)Oc1ccccc1` [GS-6620], the half-maximal inhibitory concentration (IC50) was > 200 µM.

On to `CCOc1nc(N)nc2c1ncn2[C@@H]1O[C@@H]2COP(=O)(OC(C)C)O[C@H]2[C@@]1(C)F` (stereo partly shown) [PSI-938], for which the half-maximal inhibitory concentration (IC50) is > 200 µM.

On to `C[C@@]1(F)[C@H](O)[C@@H](CO)O[C@H]1n1ccc(N)nc1=O` [PSI-6130], for which the IC50 was > 200 µM.

Turning to `CC(C)OC(=O)[C@H](C)N[P@](=O)(OC[C@H]1O[C@@H](n2ccc(=O)[nH]c2=O)[C@](C)(F)[C@@H]1O)Oc1ccccc1` [Sofosbuvir], the half-maximal inhibitory concentration (IC50) is > 200 µM.

These data come from PMC4750701, “Role of Mitochondrial RNA Polymerase in the Toxicity of Nucleotide Inhibitors of Hepatitis C Virus” (Antimicrobial Agents and Chemotherapy, 2016).
